Data on 4 molecules can be found in patent US6855726B1, “Quinolones as serine protease inhibitors” (Warner-Lambert Company LLC, priority 1998, dated 2005).

The conditions of test [1]: rat arteriovenous shunt and venous stasis models; Wong et al. 1996; cited from earlier work.
The next test has as its target T1, human factor Xa (Homo sapiens, UniProt P00742).
T1 construct: human factor Xa (1 nM final, Enzyme Research Laboratories); purchased Enzyme Research Laboratories
The test is described as follows: Determination of factor Xa IC50 (chromogenic substrate S2765). It is filed as biochemical. As for the experimental part: The ability of compounds to act as inhibitors of human factor Xa catalytic activity is assessed by determination of that concentration of test substance that inhibits by 50% (IC50) the ability of human factor Xa to cleave the chromogenic substrate S2765 (N-CBz-D-Arg-L-Gly-L-Arg-p-nitroanilide. 2HCl, DiaPharma). Typically, 145 μL human factor Xa (1 nM final, Enzyme Research Laboratories) in 10 mM HEPES, 150 mM NaCl, 0.1% BSA, pH 7.4 (HBSA buffer) and 5 μL of test substance in DMSO (2% final) are incubated for 60 minutes at room temperature. Following preheating to 37° C. for 5 minutes, to this mixture is added […] of S2765 in HBSA buffer. The velocity of S2765 hydrolysis is determined at 37° C. by measuring the initial rate of change of the optical density at OD405 nm every 10 seconds for 5 minutes using a ThermoMax®D Kinetic Microplate Reader.

Another test addresses T2, human thrombin (Homo sapiens, UniProt P00734).
T2 construct: purchased Enzyme Research Laboratories
As to the kind of experiment: Determination of thrombin IC50 (chromogenic substrate Chromozym TH). The format is biochemical. As to the method: The ability of compounds to act as inhibitors of human thrombin catalytic activity is assessed by determination of that concentration of test substance that inhibits by 50% (IC50) the ability of human thrombin to cleave the chromogenic substrate Chromozym TH (Tosyl-Gly-Pro-Arg-pNA*Ac, Boehringer Mannheim). Typically, 145 μL human thrombin (0.75 nM, Enzyme Research Laboratories) in a HPB buffer (10 mM HEPES, 100 mM NaCl, 0.05% BSA, 0.1% PEG-8000, pH 7.4) and 5 μL of test substance in DMSO (2% final) are incubated for 60 minutes at room temperature. Following preheating to 37° C. for 5 minutes, to this mixture is added 100 μL of Chromozym TH in HPB buffer. The velocity of Chromozym TH hydrolysis is determined at 37° C. by measuring the initial rate of change of the optical density at OD405 nm every 10 seconds for 5 minutes using a ThermoMax® Kinetic Microplate Reader.

For another test, the target named is human trypsin (Homo sapiens, UniProt P07477). The test is described as follows: Determination of trypsin IC50 (chromogenic substrate S2222). It is filed as biochemical. As to the method: The ability of compounds to act as inhibitors of human trypsin catalytic activity is assessed by determination of that concentration of test substance that inhibits by 50% (IC50) the ability of human trypsin to cleave the chromogenic substrate S2222 (N-Bz-L-Ile-L-Glu-L-Gly-L-Arg-p-nitroanilide. HCl, DiaPharma). Typically, 145 μL human trypsin (0.5 nM final) in 10 mM HEPES, 150 mM NaCl, 0.1% BSA, and 5 μL of the test substance in DMSO (2% final) are incubated for 60 minutes at room temperature. Following preheating to 37° C. for 5 minutes, to this mixture is added 100 μL of S2222 in HBSA buffer (100 μM final), and the velocity of S2222 hydrolysis is determined at 37° C. by measuring the optical density at OD405 nm every 10 seconds over 5 minutes using a ThermoMax® Kinetic Microplate Reader.

The conditions of test [2]: dog, adjunct to recombinant tissue plasminogen activator; Mellott et al. 1993; cited from earlier work.
The conditions of test [3]: rabbit venous thrombosis; Fioravanti et al. 1993; cited from earlier work.
The conditions of test [4]: canine coronary artery, electrolytic lesion model; Lynch et al., Schaffer et al.; cited from earlier work.
For test [5] the following is noted: various models of arterial and venous thrombosis; Lapatto et al. 1997; cited from earlier work.

T1 sequence (P00742 235-488 limits assumed): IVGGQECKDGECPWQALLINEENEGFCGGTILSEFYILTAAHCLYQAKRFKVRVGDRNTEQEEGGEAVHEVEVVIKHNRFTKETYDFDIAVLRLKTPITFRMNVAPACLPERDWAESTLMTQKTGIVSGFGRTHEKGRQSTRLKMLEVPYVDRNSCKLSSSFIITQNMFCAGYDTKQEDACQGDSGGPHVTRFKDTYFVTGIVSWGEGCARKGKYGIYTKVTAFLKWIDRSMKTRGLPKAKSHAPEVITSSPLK
T1 sequence (P00742 41-179 partner limits assumed): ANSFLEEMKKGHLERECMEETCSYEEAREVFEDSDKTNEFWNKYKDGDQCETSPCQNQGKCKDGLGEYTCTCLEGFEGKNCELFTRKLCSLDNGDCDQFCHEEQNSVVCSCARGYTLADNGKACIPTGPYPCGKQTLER

In the case of `CC(=N)N1CC[C@H](Oc2ccc([C@H](Cc3ccc4ccc(C(=N)N)cc4c3)C(=O)O)cc2)C1` [DX9065a], the “inhibition of thrombus formation” value in test [1] is “inhibition of thrombus formation was achieved at doses that had little effect on APTT”.

On to `C[C@@H]1CCC[C@H](C)N1CCCCCN1C(=O)C(c2cc(C(=N)N)ccc2O)Cc2ccccc21` (stereo partly drawn) [Example 2, 3-(1-5-[(2R,6S)-2,6-dimethyltetrahydro-1(2H)-pyridinyl]pentyl-2-oxo-1,2,3,4-tetrahydro-3-quinolinyl)-4-hydroxybenzenecarboximidamide], for which the figures for the IC50 at human factor Xa, against human thrombin and at human trypsin were 20 nM, 1140 nM and 562 nM, respectively.

For the molecule “rTAP: recombinant tick anticoagulant peptide, a protein or polypeptide factor Xa inhibitor (YNRLCIKPRDWIDECDSNEGGERAYFRNGKGGCDSFWICPEDHTGADYYSSYRDCFNACI; UniProt P17726 1-60, looked up)”, in test [2], the “clot lysis and acute reocclusion” value is “accelerate the recombinant tissue plasminogen activator mediated clot lysis and prevent acute reocclusion”. Also, the fibrin deposition entry in test [3] is recorded as “reduce fibrin deposition”. Besides, the “thrombus mass and time to occlusion” value in test [4] was “reduce thrombus mass and time to occlusion”.

B1: Antistasin: a potent inhibitor of blood coagulation factor Xa, from the Mexican leech Haementeria officinalis (protein, UniProt P15358 18-136, looked up)
Antistasin: QGPFGPGCEEAGCPEGSACNIITDRCTCSGVRCRMHCPHGFQRSRYGCEFCKCRLEPMKATCDISECPEGMMCSRLTNKCDCKIDINCRKTCPNGLKRDKLGCEYCECRPKRKLIPRLS
Consider B1, for which the antithrombotic activity result in test [5] is given as “displays antithrombotic activity”.
